Laboratory results: patent publication US20240108634A1, “COMPOSITIONS AND METHODS FOR INHIBITING YAP” (The United States Government as represented by the …, priority 2021, published 2024)

Experiments:
LN229 and GBM39 cells [1] = assay: Matrigel invasion assay; type: cell-based, human; settings: Matrigel-coated membranes
Excerpt: (§1) Cells were layered in soft agar to evaluate anchorage-independent growth in the presence of the indicated concentrations of inhibitor and colonies counted following 14 days of growth. Representative crystal violet stained images are shown below. Data represent mean+S.D. of three independent experiments. […] Cells were placed in Boyden chambers and allowed to migrate towards BSA (white bars), vitronectin (light yellow bars), or fibronectin (dark yellow bars) (*, P<0.05; n=3). […] Representative crystal violet stained images are shown (200×). Data represent mean+S.D. of three independent experiments. […] Graphical data shown below represent mean+S.D. (late apoptosis; annexin V-positive, PI-positive) of three independent experiments.
(§2) Cell proliferation, clonogenic, migration, invasion and apoptosis assays. Cell proliferation was determined via Cell Titer-Glo® luminescent cell assays (Promega). Clonogenic assays were done by plating a total of 1,000 cells per well in 24-well plates in a total volume of 400 μL using a two-layered soft agar system as previously described (Masri J, et al. (2007) Cancer Res 67: 11712-11720). Cell migration assays were conducted using precoated modified Boyden chambers as previously described (Benavides-Serrato A, et al. (2017) PLoS One 12: e0176599). […]

LN229 and GBM39 cells [2] = assay: GBM cell proliferation; type: cell-based, human; settings: 0.1, 1, 2 μM
Excerpt: as §1, §2

full-length human YAP1 = target: T1, full-length human YAP1 (Homo sapiens, UniProt P46937); assay: Inhibitor-coupled bead binding of recombinant HA-tagged YAP; settings: immunoblot of bound HA-YAP
T1 construct: purified recombinant HA-tagged full-length human YAP1; made in house
Protocol: FIGS. 1A-G show the identification of a YAP1-TEAD1 binding interface inhibitor. […] The Gal4 DBD was fused to residues 50-171 of human YAP1 and the Gal4 AD was fused to residues 194-411 of human TEAD1. These fusions were expressed in yeast containing reporters harboring Gal4 upstream activating sequences (UAS). […] Yeast expressing either p53-DBD and SV40 large T antigen-AD fusions or YAP1-DBD and TEAD1-AD fusions were plated on selective media. Compounds were pinned onto the plate surfaces by robotic transfer and subsequently examined for halo formation (indicated by red circles). […] Pull-down products were analyzed by SDS-PAGE and silver staining. […] Raw binding sensorgrams obtained at each concentration were fitted to a 1:1 binding model and Kon, Koff and KD were calculated by simultaneous non-linear regression analyses.
Protein and mRNA analyses, immunoprecipitation, in vitro bead-coupled inhibitor binding assays and HPLC analyses. […] Antigen-antibody complexes were detected using appropriate horseradish peroxidase-conjugated secondary antibodies (GE Healthcare) and enhanced chemiluminescence (Amersham ECL Prime). […] For quantitative RT-PCR, extraction of RNA was performed using Trizol® (Life Technologies). Total RNA was then quantified and integrity assessed using an Agilent 2100 Bioanalyzer (Agilent Technology). […]

T1 sequence (P46937 whole entry): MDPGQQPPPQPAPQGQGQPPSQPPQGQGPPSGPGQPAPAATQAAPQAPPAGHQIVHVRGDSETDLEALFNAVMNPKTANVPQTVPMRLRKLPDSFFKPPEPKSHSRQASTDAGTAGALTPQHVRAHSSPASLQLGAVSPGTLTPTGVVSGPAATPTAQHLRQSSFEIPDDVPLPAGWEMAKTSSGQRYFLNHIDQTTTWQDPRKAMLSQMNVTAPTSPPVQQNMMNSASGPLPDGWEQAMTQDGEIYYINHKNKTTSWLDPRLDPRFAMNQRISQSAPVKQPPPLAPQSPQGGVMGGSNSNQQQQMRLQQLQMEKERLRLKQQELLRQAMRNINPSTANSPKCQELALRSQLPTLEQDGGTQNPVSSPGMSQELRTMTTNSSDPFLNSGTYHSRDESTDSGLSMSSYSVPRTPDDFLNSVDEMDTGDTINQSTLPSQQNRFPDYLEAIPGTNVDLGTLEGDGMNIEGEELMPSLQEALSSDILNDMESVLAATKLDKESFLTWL

Question: Which Cell invasiveness (LN229 and GBM39 cells [1]) does the source give for `COc1ccc(-c2cc(-c3ccccc3)nc3c2CC(=O)Nc2ccccc2-3)cc1OC` [NSC682769] here?
Answer: reduced the number of cells able to traverse Matrigel-coated membranes

Question: What about the Cell growth (LN229 and GBM39 cells [2]) of the same molecule?
Answer: significantly inhibited

Question: What about the “Binding of YAP to compound-coupled beads” value (full-length human YAP1) of the same molecule?
Answer: associated strongly
